Source: ChEMBL document CHEMBL3046639, “Syntheses of tetrahydronaphthalenes. Part II” (Tetrahedron, 1994)
Activity calls are given as the source filed them. How the calls were made is not given here.

Test: Pre-emergence herbicidal activity against narrowleaf weed at 0.5 lb/acre
Format: functional

Structure (SMILES) | Activity
CN(C)c1c([N+](=O)[O-])cc([N+](=O)[O-])c2c1C(C)(C)CCC2 | inactive
CCOC(=O)c1c(C)cc2c(c1C)CCCC2(C)C | inactive
CCCC1(CCC)CCCc2c1cc([N+](=O)[O-])c(F)c2[N+](=O)[O-] | inactive
Cc1cc2c(c(C)c1C(=O)O)CCCC2(C)C | inactive
CCCC1(CCC)CCCc2cc(N(C)C)c([N+](=O)[O-])cc21 | inactive
CC(C)c1cc(C(C)C)c2c(c1)C(C)(C)CCC2 | inactive
COC(=O)c1cc2c(cc1OC)CCCC2(C)C | inactive
CCC(CC)Nc1c([N+](=O)[O-])cc2c(c1[N+](=O)[O-])CCCC2(C)C(C)C (configuration not stated) | inactive
CC(=O)c1c(C)cc2c(c1C)CCCC2(C)C | inactive
CC(C)C1(C)CCCc2c1cc([N+](=O)[O-])c(F)c2[N+](=O)[O-] (configuration not stated) | inactive
COc1c([N+](=O)[O-])cc([N+](=O)[O-])c2c1C(C)(C)CCC2 | inactive
CC1(C)CCCc2c([N+](=O)[O-])cc([N+](=O)[O-])c(F)c21 | inactive
CC1(C)CCCc2c1cc([N+](=O)[O-])c(F)c2[N+](=O)[O-] | inactive
CCCC1(CCC)CCCc2c1cc([N+](=O)[O-])c(NC(CC)CC)c2[N+](=O)[O-] | inactive
COc1ccc(C(=O)O)c2c1C(C)(C)CCC2 | inactive
CC(=O)c1c(F)cc2c(c1F)CCCC2(C)C | inactive
CCC(CC)Nc1c([N+](=O)[O-])cc2c(c1[N+](=O)[O-])CCCC21CCCCC1 | inactive
COC(=O)c1c(C)cc2c(c1C)CCCC2(C)C | Active
COc1c([N+](=O)[O-])cc2c(c1[N+](=O)[O-])CCCC2(C)C | inactive
CCCCOC(=O)c1c(C)cc2c(c1C)CCCC2(C)C | inactive
CCS(=O)(=O)c1c([N+](=O)[O-])cc2c(c1[N+](=O)[O-])CCCC2(C)C | inactive
CCSc1c([N+](=O)[O-])cc2c(c1[N+](=O)[O-])CCCC2(C)C | inactive
Cc1cc2c(c(C)c1C(=O)C(Br)(Br)Br)CCCC2(C)C | inactive
Cc1cc2c(c(C)c1C(=O)N(C)C)CCCC2(C)C | inactive
CCC(CC)Nc1c([N+](=O)[O-])cc2c(c1[N+](=O)[O-])CCCC2C (configuration not stated) | inactive
COc1cc2c(cc1C(C)=O)C(C)(C)CCC2 | inactive

Structure (SMILES) | Activity
COc1cc2c(cc1C(=O)O)C(C)(C)CCC2 | inactive
CN(C)c1cc2c(cc1[N+](=O)[O-])C(C)(C)CCC2 | inactive
COc1cc(OC)c2c(c1)C(C)(C)CCC2 | inactive
CCC(CC)Nc1c([N+](=O)[O-])cc2c(c1[N+](=O)[O-])CCCC2(C)C | Active
CC1(C)CCCc2cc(F)c([N+](=O)[O-])cc21 | inactive
CCC(=O)c1c(C)cc2c(c1C)CCCC2(C)C | inactive
COc1c([N+](=O)[O-])cc2c(c1[N+](=O)[O-])CCCC2(C)C(C)C (configuration not stated) | inactive
CCNc1c([N+](=O)[O-])cc2c(c1[N+](=O)[O-])CCCC2(C)C | inactive
Fc1ccc2c(c1)CCCC21CCCCC1 | inactive
CCCN(CCC)c1c([N+](=O)[O-])cc2c(c1[N+](=O)[O-])CCCC2(C)C | inactive
CCCC1(CCC)CCCc2c1cc([N+](=O)[O-])c(N(C)C)c2[N+](=O)[O-] | inactive
CC(C)C1(C)CCCc2cc(F)ccc21 (configuration not stated) | inactive
Cc1cc(C)c2c(c1)C(C)(C)CCC2 | inactive
CC1CCCc2cc(F)ccc21 (configuration not stated) | inactive
CN(C)c1c([N+](=O)[O-])cc2c(c1[N+](=O)[O-])CCCC2(C)C | inactive
CC1CCCc2c1cc([N+](=O)[O-])c(F)c2[N+](=O)[O-] (configuration not stated) | inactive
COc1c2c(cc(F)c1C(C)=O)C(C)(C)CCC2 | inactive
COc1ccc(C(C)=O)c2c1C(C)(C)CCC2 | inactive
CC1(C)CCCc2c(F)cc(F)cc21 | inactive
CCN(CC)c1c([N+](=O)[O-])cc2c(c1[N+](=O)[O-])CCCC2(C)C | inactive
CNc1c([N+](=O)[O-])cc2c(c1[N+](=O)[O-])CCCC2(C)C | inactive
COC(=O)c1ccc(OC)c2c1CCCC2(C)C | inactive
CN(C)c1c([N+](=O)[O-])cc2c(c1[N+](=O)[O-])CCCC21CCCCC1 | inactive
O=[N+]([O-])c1cc2c(c([N+](=O)[O-])c1F)CCCC21CCCCC1 | inactive
CCCC1(CCC)CCCc2cc(F)ccc21 | inactive
CC(C)C1(C)CCCc2c1cc([N+](=O)[O-])c(N(C)C)c2[N+](=O)[O-] (configuration not stated) | inactive
